Experimental findings from PubChem BioAssay AID330 (DTP/NCI, 2004) are described below.

The test deals with P388 leukemia ip, CD2F1 mice, survival T/C. The test is described as follows: NCI In Vivo Anticancer Drug Screen. Data for tumor model P388 Leukemia (intraperitoneal) in CD2F1 (CDF1) mice. The following applies: endpoint: median survival time, higher = longer survival. The gist of the method:
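Mice carrying the transplanted tumor received test compound or vehicle. Survival was recorded in each group, and the value is the treated-group measurement divided by that of the vehicle-treated control group.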

[1] abbreviates: dose: 50.0 mg/kg/injection, schedule: Q01DX005 (ip), vehicle: Klucel (hydroxypropylcellulose) (HPC).
[2] abbreviates: dose: 100.0 mg/kg/injection, schedule: Q01DX005 (ip), vehicle: Klucel (hydroxypropylcellulose) (HPC).
Where [3] appears, read: dose: 200.0 mg/kg/injection, schedule: Q01DX005 (ip), vehicle: Klucel (hydroxypropylcellulose) (HPC).
[4] abbreviates: dose: 50.0 mg/kg/injection, schedule: Q01DX005 (ip), vehicle: saline with Tween-80.
The mark [5] stands for this setting: dose: 100.0 mg/kg/injection, schedule: Q01DX005 (ip), vehicle: saline with Tween-80.
[6] abbreviates: dose: 200.0 mg/kg/injection, schedule: Q01DX005 (ip), vehicle: saline with Tween-80.
The mark [7] stands for this setting: dose: 50.0 mg/kg/injection, schedule: Q01DX009 (ip), vehicle: saline.
Setting [8] is: dose: 100.0 mg/kg/injection, schedule: Q01DX009 (ip), vehicle: saline.
Where [9] appears, read: dose: 100.0 mg/kg/injection, schedule: Q01DX009 (ip), vehicle: saline with Tween-80.
Setting [10] is: dose: 200.0 mg/kg/injection, schedule: Q01DX009 (ip), vehicle: saline with Tween-80.

Molecules are shown by their SMILES. “And” between values parts separate entries of the source, which are not always exact repeats. Equal entries are not always repeated. Inconclusive results and toxic doses are left out.

As for `CCC(C)C(NC(=O)C(Cl)Cl)C(=O)O` (stereo unspecified), the T/C is 96 % of control under setting [1], 96 % of control under setting [2] and 99 % of control under setting [3].

Turning to `CCOC(=O)C1=C(C)NC(=O)NC1c1cc(OC)c(OC)c(OC)c1` (stereo unspecified), the T/C reads like this: under setting [1], 98 % of control; under setting [2], 96 % of control; under setting [3], 94 % of control.

For the molecule `CC1CC2(CC(COc3ccccc3C(N)=O)OC2=O)C(=O)O1` (stereo unspecified), the T/C is 100 % of control under setting [4], 100 % of control under setting [5] and 97 % of control under setting [6].

With `CN1c2ccccc2Sc2c1n[nH]c2-c1ccccc1`, the T/C is, setting by setting: (dose: 60.0 mg/kg/injection, schedule: Q01DX005 (ip), vehicle: Klucel (hydroxypropylcellulose) (HPC)) 104 % of control; (dose: 120.0 mg/kg/injection, schedule: Q01DX005 (ip), vehicle: Klucel (hydroxypropylcellulose) (HPC)) 111 % of control; (dose: 240.0 mg/kg/injection, schedule: Q01DX005 (ip), vehicle: Klucel (hydroxypropylcellulose) (HPC)) 119 % of control.

As to `O=C(O)c1c[nH]c2cc(OCCc3ccc(F)cc3)ccc2c1=O`, the T/C reads like this: under setting [7], 107 % of control; under setting [8], 101 % of control; (dose: 200.0 mg/kg/injection, schedule: Q01DX009 (ip), vehicle: saline) 101 % of control.

Regarding `CCN(CC)CCOc1cccc2c1C(=O)c1ccccc1C2=O`, the T/C runs as follows: under setting [7], 105 % of control and 98 % of control; under setting [8], 106 % of control.

Consider `COc1cccc2c1C(=O)c1c(O)c3c(c(O)c1C2=O)C[C@H](O)C[C@@H]3OC1CC(N)C(O)C(C)O1` (stereo partly specified), for which the T/C reads like this: (dose: 0.5 mg/kg/injection, schedule: Q04DX003 (ip), vehicle: saline) 105 % of control; (dose: 1.0 mg/kg/injection, schedule: Q04DX003 (ip), vehicle: saline) 114 % of control; (dose: 1.56 mg/kg/injection, schedule: Q01DX009 (ip), vehicle: water) 155 % of control and 161 % of control; (dose: 2.0 mg/kg/injection, schedule: Q04DX003 (ip), vehicle: saline) 107 % of control; (dose: 3.13 mg/kg/injection, schedule: Q01DX009 (ip), vehicle: water) 174 % of control; (dose: 4.0 mg/kg/injection, schedule: Q04DX003 (ip), vehicle: saline) 117 % of control. For the same molecule, the T/C runs as follows: (dose: 4.7 mg/kg/injection, schedule: Q04DX003 (ip), vehicle: water) 109 % of control; (dose: 6.25 mg/kg/injection, schedule: Q01DX009 (ip), vehicle: water) 180 % of control and 209 % of control; (dose: 8.0 mg/kg/injection, schedule: Q04DX003 (ip), vehicle: saline) 108 % of control; (dose: 12.5 mg/kg/injection, schedule: Q01DX009 (ip), vehicle: water) 228 % of control and 236 % of control; (dose: 64.0 mg/kg/injection, schedule: Q04DX003 (ip), vehicle: saline) 169 % of control; (dose: 75.0 mg/kg/injection, schedule: Q04DX003 (ip), vehicle: water) 181 % of control. In addition, the T/C is, setting by setting: (dose: 113.0 mg/kg/injection, schedule: Q04DX003 (ip), vehicle: water) 116 % of control; (dose: 128.0 mg/kg/injection, schedule: Q04DX003 (ip), vehicle: saline) 100 % of control.

For `O=C(O)COCC(F)(F)C(F)(F)C(F)(F)COCC(=O)O`, the T/C (dose: 176.0 mg/kg/injection, schedule: Q04DX003 (ip), vehicle: saline) is 100 % of control; the T/C (dose: 264.0 mg/kg/injection, schedule: Q04DX003 (ip), vehicle: saline) is 91 % of control; the T/C (dose: 400.0 mg/kg/injection, schedule: Q04DX003 (ip), vehicle: saline) is 100 % of control.

With `CC1OC(C)(C)OC1C(=O)OCc1ccccc1` (stereo unspecified), the T/C runs as follows: (dose: 25.0 mg/kg/injection, schedule: Q01DX005 (ip), vehicle: water) 96 % of control; (dose: 50.0 mg/kg/injection, schedule: Q01DX005 (ip), vehicle: water) 105 % of control; (dose: 100.0 mg/kg/injection, schedule: Q01DX005 (ip), vehicle: water) 100 % of control; (dose: 200.0 mg/kg/injection, schedule: Q01DX005 (ip), vehicle: water) 100 % of control; (dose: 400.0 mg/kg/injection, schedule: Q01DX005 (ip), vehicle: water) 100 % of control.

For `Cc1cc(C)n(-c2ccc(S(=O)(=O)N3CCC(=O)N(Cc4ccccc4)C3=S)cc2)n1`, the T/C was 100 % of control under setting [4], 93 % of control under setting [5] and 93 % of control under setting [6].

Consider `COc1ccc(-c2c(C#N)c(N)nc(C)c2-c2ccccc2)cc1`, for which the T/C is, setting by setting: (dose: 100.0 mg/kg/injection, schedule: Q01DX001 (ip), vehicle: saline with Tween-80) 100 % of control; (dose: 200.0 mg/kg/injection, schedule: Q01DX001 (ip), vehicle: saline with Tween-80) 96 % of control; (dose: 400.0 mg/kg/injection, schedule: Q01DX001 (ip), vehicle: saline with Tween-80) 91 % of control.

Take `O=C(Nc1nc2ccc([N+](=O)[O-])cc2s1)C(F)(F)C(F)(F)F`: the T/C runs as follows: (dose: 6.25 mg/kg/injection, schedule: Q01DX009 (ip), vehicle: saline) 112 % of control; (dose: 12.5 mg/kg/injection, schedule: Q01DX009 (ip), vehicle: saline) 112 % of control; (dose: 25.0 mg/kg/injection, schedule: Q01DX009 (ip), vehicle: saline) 106 % of control.

With `N[C@H](Cc1c[nH]c2ccccc12)C(=O)O`, the T/C is 98 % of control under setting [9]; 103 % of control under setting [10]; 103 % of control (dose: 400.0 mg/kg/injection, schedule: Q01DX009 (ip), vehicle: saline with Tween-80).

Consider `CCCCCCOC(=O)C(O)c1ccccc1` (stereo unspecified), for which the T/C under setting [9] is 100 % of control and the T/C under setting [10] is 109 % of control.

As to `C/C=C1\CN2CCC34c5ccccc5N(C(C)=O)C3C(C=O)C1CC24` (stereo unspecified), the T/C runs as follows: (dose: 7.88 mg/kg/injection, schedule: Q01DX005 (ip), vehicle: saline + Tween-80 + alcohol) 101 % of control; (dose: 15.75 mg/kg/injection, schedule: Q01DX005 (ip), vehicle: saline + Tween-80 + alcohol) 109 % of control; (dose: 31.5 mg/kg/injection, schedule: Q01DX005 (ip), vehicle: saline + Tween-80 + alcohol) 103 % of control; (dose: 63.0 mg/kg/injection, schedule: Q01DX005 (ip), vehicle: saline + Tween-80 + alcohol) 103 % of control.

As to `O=S(=O)(Nc1nccs1)c1ccc(Nc2c3ccc(Cl)cc3nc3ncccc23)cc1`, the T/C is, setting by setting: under setting [4], 105 % of control; under setting [5], 102 % of control; under setting [6], 98 % of control.

Regarding `O=C(CC(O)(c1ccccc1)c1ccccc1)SCc1ccccc1`, the T/C runs as follows: (dose: 100.0 mg/kg/injection, schedule: Q04DX003 (ip), vehicle: Klucel (hydroxypropylcellulose) (HPC)) 102 % of control; (dose: 200.0 mg/kg/injection, schedule: Q04DX003 (ip), vehicle: Klucel (hydroxypropylcellulose) (HPC)) 98 % of control; (dose: 400.0 mg/kg/injection, schedule: Q04DX003 (ip), vehicle: Klucel (hydroxypropylcellulose) (HPC)) 110 % of control.

Consider `CCCc1c(-n2[nH]c(=O)n(-c3ccccc3)c2=O)c(=O)n(C)c(=O)n1C`, for which the T/C reads like this: (dose: 50.0 mg/kg/injection, schedule: Q01DX009 (ip), vehicle: Klucel (hydroxypropylcellulose) (HPC)) 110 % of control; (dose: 100.0 mg/kg/injection, schedule: Q01DX009 (ip), vehicle: Klucel (hydroxypropylcellulose) (HPC)) 105 % of control; (dose: 200.0 mg/kg/injection, schedule: Q01DX009 (ip), vehicle: Klucel (hydroxypropylcellulose) (HPC)) 95 % of control.

`CC(=O)/C(N=Nc1ccc(F)cc1F)=C(\C)O`: the T/C was 103 % of control under setting [4], 103 % of control under setting [5] and 107 % of control under setting [6].

On to `COc1cc(C=Nc2cc(Cl)ccc2-n2ccnc2C)ccc1N(CCCl)CCCl`, for which the T/C was 222 % of control (dose: 50.0 mg/kg/injection, schedule: Q04DX003 (ip), vehicle: saline with Tween-80) and 88 % of control (dose: 200.0 mg/kg/injection, schedule: Q04DX003 (ip), vehicle: saline with Tween-80).
